Common to all, as to type: in vitro ADME
The test system of series [1] is human abdominal skin. In words: In vitro human skin permeation and skin disposition, flow-through diffusion cells (Examples 2, 2A, 2B). Particulars: for 30 h skin conc: Table 17, 90:8:2 PG:H2O:IPM donor solution, 40% aqueous PEG 400 receiver fluid. How it is done: Flow through diffusion cells were used for the permeation studies. HEPES-buffered Hanks' balanced salts containing 40% PEG 400 with gentamicin or 40% aqueous PEG 400 with gentamicin were used for the receiver compartment. Donor solution was comprised of 90:8:2 PG:H2O:IPM solution or gel formulation. […] Drug accumulation in the skin after a 24, 30 or 42 h diffusion experiment was determined as μmol/g wet tissue weight.
(§1) The skin samples used in the following experiments were obtained from abdominal reduction surgery and dermatomed to a thickness of approximately 200 μm. The skin samples used herein were frozen at −20° C. for less than six months.
One (1) L of receiver fluid was prepared by measuring 1 L of nanopure water into a graduated cylinder. 90% of the water was added to an Erlenmeyer flask. Hanks' salts (1 bottle) were added to the water along with 5.96 g of HEPES and 0.35 g of sodium bicarbonate. The pH of the solution was adjusted with 1 N sodium hydroxide solution to pH 7.4. The remaining water was added and the receiver fluid was filtered through a 0.2μ filter (Millipore, Billerica, Mass.). Fifty (50) mg of gentamicin was added to the filtered receiver fluid and 400 mL of the receiver fluid was removed and replaced with 400 mL of PEG 400.
The receiver fluid was prepared by measuring 600 mL of nanopure H2O into a graduated cylinder. The H2O was filtered through a 0.2μ filter (Millipore, Billerica, Mass.). Fifty (50) mg of gentamicin was added to the filtered H2O and 400 mL of PEG 400 was added.
The prodrugs were made up in a solution of 45:4:1 PG:H2O:IPM. For this solution, the appropriate amount of drug was weighed into a glass silanized culture tube and IPM was added, the 50 μL of PG to coat the drug, then an additional 247 μL PG was added and the donor solution was vortexed again. Finally 26 μL of water was added. The gel formulation resulted from the mixing of absolute ethanol, nanopure water, IPM, Carbopol® 980, 0.1 N sodium hydroxide solution and the respective drug.
The gel formulation was comprised of absolute ethanol, nanopure water, IPM, Carbopol® 980, 0.1 sodium hydroxide solution and respective drug. The anhydrous gel was comprised of absolute ethanol, PEG monoethyl ether 550, Klucel® hydroxypropylcellulose, and respective drug.
Dermatomed skin harvested from abdominoplasty, stored at −20° C., was used for the experiments. A PermeGear flow-through (In-Line, Hellertown, Pa.) diffusion cell system was used for the skin permeation studies.
Diffusion cells were kept at 32° C. with a circulating water bath. Human epidermal skin was arranged in the diffusion cell with stratum corneum (upper layer of skin) facing the donor compartment. The permeation area of the skin was 0.95 cm^2. The data was collected from a human skin donor with three diffusion cells per treatment.
The receiver solution was HEPES-buffered Hanks' balanced salts with gentamicin containing 40% PEG 400 at a pH of 7.4 or 40% aqueous PEG 400 and flow rate was adjusted to 0.8 mL/h. Each cell was charged with 0.10 mL of the respective drug formulation (donor solution) or 50 μL of gel formulation which was rubbed into the skin for 15 sec with a Teflon coated rod. The formulation was applied to ensure complete coverage. […]. Diffusion cells were covered with a stopper or cap for the duration of the study.
Samples were collected into scintillation vials in 3 h increments for either 24, 30, or 42 h. All the samples were stored at 4° C. until extracted. An aliquot (0.5 mL) of the diffusion sample was placed into a silanized HPLC vial and 0.5 mL of acetonitrile was added to the sample, capped and vortexed.
At the end of the experiment, the skin tissue was removed from the diffusion cell, rinsed with nanopure water, and blotted dry with a paper towel. The skin was tape stripped twice using book tape (Scotch™, 3M, St. Paul, Minn.) to remove drug formulation adhering to the tissue surface.

A short description of series [2]: Plasma stability of cannabidiol prodrugs (bioconversion to parent drug). Particulars: Table 20, di-prodrug in plasma; for % mono-prodrug at time (h): mono-prodrug formed. How it is done:
An approximated 1 mg/mL stock solution of each prodrug was prepared in 100 μL of ethanol and 900 μL of acetonitrile. Ten (10) μL of stock was spiked into 1 mL of plasma and vortexed. The samples were kept sealed in an amber vial and samples were obtained to analyze for bioconversion to parent drug.

For series [3], the system named is human abdominal skin. In words: In vitro human skin permeation and skin disposition, flow-through diffusion cells (Example 1). Here is the method: Flow through diffusion cells were used for the permeation studies. HEPES-buffered Hanks' balanced salts containing 40% (polyethylene glycol) PEG 400 with gentamicin was used for the receiver compartment. Donor solution was comprised of either 100% propylene glycol (PG) solution or a rubbed in gel formulation. […] Drug accumulation in the skin after a 24 or 36 h diffusion experiment was determined as μmol/g wet tissue weight.
as §1
1 L of receiver fluid was prepared by measuring 1 L of nanopure water into a graduated cylinder. 90% of the water was added to an Erlenmeyer flask. Hanks' salts (1 bottle) were added to the water along with 5.96 g of HEPES and 0.35 g of sodium bicarbonate. The pH of the solution was adjusted with 1 N sodium hydroxide solution to pH 7.4. The remaining water was added and the receiver fluid was filtered through a 0.2μ filter (Millipore, Billerica, Mass.). 50 mg of gentamicin was added to the filtered receiver fluid and 400 mL of the receiver fluid was removed and replaced with 400 mL of PEG 400.
Two different formulations were used for charging the donor compartment. Drugs were made up in either 100% PG or a gel formulation. For the PG solution, approximately 50-120 mg of the appropriate drug was weighed into a glass silanized culture tube. The gel formulation resulted from the mixing of absolute ethanol, nanopure water, IPM, Carbopol® 980, 0.1 N aqueous sodium hydroxide solution and the respective drug.
Dermatomed skin harvested from abdominoplasty, stored at −20° C., was used for the experiments. A PermeGear flow-through (In-Line, Riegelsville, Pa.) diffusion cell system was used for the skin permeation studies.
Diffusion cells were kept at 32° C. with a circulating water bath. Human epidermal skin was arranged in the diffusion cell with stratum corneum (upper layer of skin) facing the donor compartment. Permeation area of the skin was 0.95 cm^2. Data was collected from a human skin donor with three to four diffusion cells per treatment.
Receiver solution was HEPES-buffered Hanks' balanced salts with gentamicin containing 40% PEG 400 at a pH of 7.4 and flow rate was adjusted to 0.8 mL/h. Each cell was charged with 0.050 mL of the respective drug formulation (donor solution) or with 0.035 mL of gel formulation which was rubbed into the skin for 15 sec with a Teflon coated rod. The formulation was applied to ensure complete coverage. Diffusion cells were covered with a cap for the duration of the study.
Samples were collected into scintillation vials in 3 h increments for either 24 h or 36 h. All the samples were stored at 4° C. until extracted. An aliquot (0.5 mL) of the diffusion sample was placed into a silanized HPLC vial and 0.5 mL of acetonitrile was added to the sample, capped and vortexed.
At the end of the experiment, the skin tissue was removed from the diffusion cell, rinsed with nanopure water, and blotted dry with a paper towel. The skin was tape stripped twice using book tape (Scotch™, 3M, St. Paul, Minn.) to remove drug formulation adhering to the tissue surface. The area of skin in contact with the drug was cut out, chopped up and placed in a pre-weighed scintillation vial. Ten mL of acetonitrile was added to the vial and drug was extracted from the skin by shaking at room temperature overnight. The following day a 0.1 mL aliquot was removed and diluted with an additional 0.9 mL of acetonitrile. The diluted sample was added to the silanized HPLC vial for analysis.
At the end of the experiment, a 0.01 mL aliquot of the PG donor solution was removed and added to a scintillation vial containing 10 mL of acetonitrile. The vials were vortexed and then sonicated for 15 min. An aliquot of 1 mL was removed and transferred into a silanized HPLC vial for analysis.

Where [4] appears, read: Table 3, in propylene glycol, prodrug applied.
[5] abbreviates: Table 4, in propylene glycol, prodrug applied.
[6] abbreviates: Table 5, in propylene glycol, prodrug applied.

SMILES strings stand for the structures.

For `C=C(C)[C@@H]1CCC(C)=C[C@H]1c1c(OC(=O)OC)cc(CCCCC)cc1OC(=O)OC` [ALL00143, CBD Bis(Methyl Carbonate)], the “30 h skin conc” value stood at 0.5 ± 0.0 µmol/g in series [1] (CBD from applied prodrug); 5.8 ± 3.0 µmol/g in series [1] (as applied compound (CBD or intact prodrug)); 6.0 ± 3.2 µmol/g in series [1] (prodrug applied, as total cannabidiol equivalents). Besides, the “detected in the skin as” value in series [1] (in donor solution) was “prodrug and trace amounts of cannabidiol”. For the same molecule, the “permeated through the skin as” value in series [1] (in donor solution) is given as “did not permeate through the skin or was below detection in the receiver samples”. Also, in series [1] (in donor solution), the “total skin concentrations compared to cannabidiol” value is listed as “not higher”. Besides, the “% mono-prodrug at time (h)” value in series [2] (1 h), in series [2] (3 h) and in series [2] (24 h) was 0% in each case. The “% Di-prodrug at time (h)” value was 100% in series [2] (0 h), 82% in series [2] (1 h), 76% in series [2] (3 h) and 65% in series [2] (24 h).

Consider `C=C(C)C1CCC(C)=CC1c1c(OC(=O)OCN(CC)CC)cc(CCCCC)cc1OC(=O)OCN(CC)CC` (stereo not shown) [ALL00102], for which, in series [3] (Example 1), the “flux enhancement (in words)” value was “No flux enhancement”. Also, in series [3] (Example 1), the “form in which the prodrug permeated through the human skin” value is “permeated through the human skin as cannabidiol”. Also, in series [3] (Example 1), the “found in the skin disposition (tissue) samples” value is “Both cannabidiol and intact prodrug were found”. Also, the “intact prodrug in the diffusion samples (receiver samples)” value in series [3] (Example 1) was “No intact prodrug was found”. Also, in series [3] (Example 1), the “total cannabidiol in the skin compared to cannabidiol” value is on record as “higher”. Besides, the “24 h cumulative amt” value is 8.6 ± 6.3 nmol in series [3] (setting [4]); 9.1 ± 5.0 nmol in series [3] (setting [5]); 13.7 ± 18.6 nmol in series [3] (setting [6]); 1.1 ± 0.4 nmol in series [3] (Table 9, in gel formulation). Besides, the Flux is 0.6 ± 0.5 nmol/cm^2/h in series [3] (setting [4]); 0.7 ± 0.3 nmol/cm^2/h in series [3] (setting [5]); 0.3 ± 0.1 nmol/cm^2/h in series [3] (setting [6]); 0.05 ± 0.02 nmol/cm^2/h in series [3] (Table 9, in gel formulation). Further, the Lag time in series [3] (setting [5]) turned out to be 11.0 ± 2.8 h; in series [3] (setting [6]), 5.1 ± 0.0 h; in series [3] (Table 9, in gel formulation) it was 1.6 ± 1.6 h. In addition, the “24 h skin conc” value is listed as 18.9 ± 9.9 (CBD) μmol/g in series [3] (Table 4, in propylene glycol, prodrug applied, found in skin as CBD); 73.4 ± 35.5 (PD) μmol/g in series [3] (Table 4, in propylene glycol, prodrug applied, found in skin as PD (prodrug)); 183.1 ± 62.8 (PD) μmol/g in series [3] (Table 5, in propylene glycol, prodrug applied, found in skin as PD (prodrug)); 22.9 ± 9.3 (PD) μmol/g in series [3] (Table 9, in gel formulation, as applied compound (CBD, or PD = intact prodrug)); 0.4 ± 0.3 (CBD) μmol/g in series [3] (Table 9, in gel formulation, prodrug applied, found in skin as CBD); 31.3 ± 5.5 (PD) μmol/g in series [3] (Table 10, in propylene glycol, as applied compound (CBD, or PD = intact prodrug)).

Take `C=C(C)C1CCC(C)=CC1c1c(OC(=O)COCCOCCOC)cc(CCCCC)cc1OC(=O)COCCOCCOC` (stereo not shown) [ALL00141, CBD bis(2-[2-(2-methoxyethoxy)ethoxy]acetate)]: the entries for the “% mono-prodrug at time (h)” value in series [2] (2 h) and in series [2] (20 h) were 1% and 2%, respectively. The “% Di-prodrug at time (h)” value worked out at 98% in series [2] (0 h), 71% in series [2] (2 h) and 46% in series [2] (20 h).

Values taken from patent US8293786B2 (Alltranz Inc., priority 2007, dated 2012).
